{
  "source": "patent US20080145313A1",
  "about": "“Compositions and Methods for the Treatment and Prevention of Neoplastic Disorders” (Genesis Research & Development Corporation Limited, priority 2006, published 2008)",
  "key": {"A549 cells": {"system": "A549 cells", "assay": "Growth inhibition of siRNA-transfected A549 cells, SYBR Green I DNA content", "assay_type": "cell-based, human", "conditions": "A549 cells, 10 nM siRNA, DNA content 96 hours after transfection, transporter gene targets", "in_short": "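A549 cells reverse-transfected with 10 nM Stealth siRNAs via Lipofectamine RNAiMAX, seeded at 5×10^3 cells/cm^2 in RPMI 1640/10% FCS; non-specific siRNA control. DNA content read 96 h post-transfection by SYBR Green I fluorescence (ex 485/em 535 nm) after freeze-thaw and Triton X-100 lysis; mean of three wells.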"}, "[1]": {"system": "target transcript mRNA in A549 cells", "assay": "Level of mRNA of target transcript in A549 cells by quantitative RT-PCR (Tables 12 and 13)", "assay_type": "cell-based, human", "conditions": "24 h post-transfection; for mRNA knockdown of transporter gene target transcript, 0.1 nM: 0.1 nM siRNA; for mRNA knockdown of transporter gene target transcript, 1 nM: 1 nM siRNA", "in_short": "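A549 cells were transfected with siRNA at 0.1, 1.0 and 10 nM. RNA was extracted 24 h later, reverse-transcribed with random primers, and target mRNA quantified by SYBR Green qRT-PCR. Values were normalised to housekeeping genes HPRT and Lamin.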"}},
  "data": [
    {"substance": "SEQ ID NO: 4895: siRNA targeting SLC2A5 (GLUT5) (chain 1 ATGTATGGCATCCAGGACACTGTGT; chain 2 AUGUAUGGCAUCCAGGACACUGUGU; Antisense strand given in DNA and RNA notation, chemistry not given here; one strand in two spellings)", "values": [
      {"measurement": "Growth Inhibition in A549 cells by 10 nM siRNA", "setting": "A549 cells", "value": "− (no growth inhibition)"},
      {"measurement": "mRNA knockdown of transporter gene target transcript, 0.1 nM", "setting": "[1]", "value": "++ (70-90% mRNA knockdown)"},
      {"measurement": "mRNA knockdown of transporter gene target transcript, 1 nM", "setting": "[1]", "value": "++ (70-90% mRNA knockdown)"}
    ]},
    {"substance": "SEQ ID NO: 4896: siRNA targeting SLC2A5 (GLUT5) (chain 1 AAGTCTTCCATGAATTCACCGGTCC; chain 2 AAGUCUUCCAUGAAUUCACCGGUCC; Antisense strand given in DNA and RNA notation, chemistry not given here; one strand in two spellings)", "values": [
      {"measurement": "Growth Inhibition in A549 cells by 10 nM siRNA", "setting": "A549 cells", "value": "− (no growth inhibition)"},
      {"measurement": "mRNA knockdown of transporter gene target transcript, 0.1 nM", "setting": "[1]", "value": "− (<50% mRNA knockdown)"},
      {"measurement": "mRNA knockdown of transporter gene target transcript, 1 nM", "setting": "[1]", "value": "− (<50% mRNA knockdown)"}
    ]},
    {"substance": "SEQ ID NO: 4897: siRNA targeting SLC2A5 (GLUT5) (chain 1 TTACAGACCACAGCAACGTCAAGGG; chain 2 UUACAGACCACAGCAACGUCAAGGG; Antisense strand given in DNA and RNA notation, chemistry not given here; one strand in two spellings)", "values": [
      {"measurement": "Growth Inhibition in A549 cells by 10 nM siRNA", "setting": "A549 cells", "value": "++ (inhibits by at least 75%)"},
      {"measurement": "mRNA knockdown of transporter gene target transcript, 0.1 nM", "setting": "[1]", "value": "+++ (>90% mRNA knockdown)"},
      {"measurement": "mRNA knockdown of transporter gene target transcript, 1 nM", "setting": "[1]", "value": "+++ (>90% mRNA knockdown)"}
    ]},
    {"substance": "SEQ ID NO: 4898: siRNA targeting SLC2A12 (GLUT12) (chain 1 TATTGTTGTTGGTTGACAGGTTTCC; chain 2 UAUUGUUGUUGGUUGACAGGUUUCC; Antisense strand given in DNA and RNA notation, chemistry not given here; one strand in two spellings)", "values": [
      {"measurement": "Growth Inhibition in A549 cells by 10 nM siRNA", "setting": "A549 cells", "value": "− (no growth inhibition)"},
      {"measurement": "mRNA knockdown of transporter gene target transcript, 0.1 nM", "setting": "[1]", "value": "+++ (>90% mRNA knockdown)"},
      {"measurement": "mRNA knockdown of transporter gene target transcript, 1 nM", "setting": "[1]", "value": "+++ (>90% mRNA knockdown)"}
    ]},
    {"substance": "SEQ ID NO: 4899: siRNA targeting SLC2A12 (GLUT12) (chain 1 TTAGCAAGGATGCTGAGGTCGTCTC; chain 2 UUAGCAAGGAUGCUGAGGUCGUCUC; Antisense strand given in DNA and RNA notation, chemistry not given here; one strand in two spellings)", "values": [
      {"measurement": "Growth Inhibition in A549 cells by 10 nM siRNA", "setting": "A549 cells", "value": "− (no growth inhibition)"},
      {"measurement": "mRNA knockdown of transporter gene target transcript, 0.1 nM", "setting": "[1]", "value": "++ (70-90% mRNA knockdown)"},
      {"measurement": "mRNA knockdown of transporter gene target transcript, 1 nM", "setting": "[1]", "value": "++ (70-90% mRNA knockdown)"}
    ]},
    {"substance": "SEQ ID NO: 4900: siRNA targeting SLC2A12 (GLUT12) (chain 1 TTGAAATATAGGCAGAAAGAATGCC; chain 2 UUGAAAUAUAGGCAGAAAGAAUGCC; Antisense strand given in DNA and RNA notation, chemistry not given here; one strand in two spellings)", "values": [
      {"measurement": "Growth Inhibition in A549 cells by 10 nM siRNA", "setting": "A549 cells", "value": "− (no growth inhibition)"},
      {"measurement": "mRNA knockdown of transporter gene target transcript, 0.1 nM", "setting": "[1]", "value": "++ (70-90% mRNA knockdown)"},
      {"measurement": "mRNA knockdown of transporter gene target transcript, 1 nM", "setting": "[1]", "value": "++ (70-90% mRNA knockdown)"}
    ]},
    {"substance": "SEQ ID NO: 4901: siRNA targeting SLC7A5 (LAT1) (chain 1 AGCGTCATCACACACGTGAACACGA; chain 2 AGCGUCAUCACACACGUGAACACGA; Antisense strand given in DNA and RNA notation, chemistry not given here; one strand in two spellings)", "values": [
      {"measurement": "Growth Inhibition in A549 cells by 10 nM siRNA", "setting": "A549 cells", "value": "− (no growth inhibition)"},
      {"measurement": "mRNA knockdown of transporter gene target transcript, 0.1 nM", "setting": "[1]", "value": "++ (70-90% mRNA knockdown)"},
      {"measurement": "mRNA knockdown of transporter gene target transcript, 1 nM", "setting": "[1]", "value": "++ (70-90% mRNA knockdown)"}
    ]},
    {"substance": "SEQ ID NO: 4902: siRNA targeting SLC7A5 (LAT1) (chain 1 AAAGAGGCCGCTGTATAATGCCAGC; chain 2 AAAGAGGCCGCUGUAUAAUGCCAGC; Antisense strand given in DNA and RNA notation, chemistry not given here; one strand in two spellings)", "values": [
      {"measurement": "Growth Inhibition in A549 cells by 10 nM siRNA", "setting": "A549 cells", "value": "+ (inhibits by at least 50%)"},
      {"measurement": "mRNA knockdown of transporter gene target transcript, 0.1 nM", "setting": "[1]", "value": "++ (70-90% mRNA knockdown)"},
      {"measurement": "mRNA knockdown of transporter gene target transcript, 1 nM", "setting": "[1]", "value": "++ (70-90% mRNA knockdown)"}
    ]},
    {"substance": "SEQ ID NO: 4903: siRNA targeting SLC7A5 (LAT1) (chain 1 ACGAAATTCAAGTAATTCCATCCTC; chain 2 ACGAAAUUCAAGUAAUUCCAUCCUC; Antisense strand given in DNA and RNA notation, chemistry not given here; one strand in two spellings)", "values": [
      {"measurement": "Growth Inhibition in A549 cells by 10 nM siRNA", "setting": "A549 cells", "value": "− (no growth inhibition)"},
      {"measurement": "mRNA knockdown of transporter gene target transcript, 0.1 nM", "setting": "[1]", "value": "++ (70-90% mRNA knockdown)"},
      {"measurement": "mRNA knockdown of transporter gene target transcript, 1 nM", "setting": "[1]", "value": "+++ (>90% mRNA knockdown)"}
    ]},
    {"substance": "SEQ ID NO: 4904: siRNA targeting SLC7A11 (xCT) (chain 1 AGATAAATCAGCCCAGCAACTGCCA; chain 2 AGAUAAAUCAGCCCAGCAACUGCCA; Antisense strand given in DNA and RNA notation, chemistry not given here; one strand in two spellings)", "values": [
      {"measurement": "Growth Inhibition in A549 cells by 10 nM siRNA", "setting": "A549 cells", "value": "− (no growth inhibition)"},
      {"measurement": "mRNA knockdown of transporter gene target transcript, 0.1 nM", "setting": "[1]", "value": "+ (50-70% mRNA knockdown)"},
      {"measurement": "mRNA knockdown of transporter gene target transcript, 1 nM", "setting": "[1]", "value": "++ (70-90% mRNA knockdown)"}
    ]},
    {"substance": "SEQ ID NO: 4905: siRNA targeting SLC7A11 (xCT) (chain 1 ATTATGAGGAGTTCCACCCAGACTC; chain 2 AUUAUGAGGAGUUCCACCCAGACUC; Antisense strand given in DNA and RNA notation, chemistry not given here; one strand in two spellings)", "values": [
      {"measurement": "Growth Inhibition in A549 cells by 10 nM siRNA", "setting": "A549 cells", "value": "++ (inhibits by at least 75%)"},
      {"measurement": "mRNA knockdown of transporter gene target transcript, 0.1 nM", "setting": "[1]", "value": "++ (70-90% mRNA knockdown)"},
      {"measurement": "mRNA knockdown of transporter gene target transcript, 1 nM", "setting": "[1]", "value": "++ (70-90% mRNA knockdown)"}
    ]},
    {"substance": "SEQ ID NO: 4906: siRNA targeting SLC7A11 (xCT) (chain 1 TAATGAGAAATTTCCCAGTAGCCGC; chain 2 UAAUGAGAAAUUUCCCAGUAGCCGC; Antisense strand given in DNA and RNA notation, chemistry not given here; one strand in two spellings)", "values": [
      {"measurement": "Growth Inhibition in A549 cells by 10 nM siRNA", "setting": "A549 cells", "value": "− (no growth inhibition)"},
      {"measurement": "mRNA knockdown of transporter gene target transcript, 0.1 nM", "setting": "[1]", "value": "+ (50-70% mRNA knockdown)"},
      {"measurement": "mRNA knockdown of transporter gene target transcript, 1 nM", "setting": "[1]", "value": "++ (70-90% mRNA knockdown)"}
    ]},
    {"substance": "SEQ ID NO: 4907: siRNA targeting SLC3A2 (4F2hc) (chain 1 TTTGTTGGATTCGAGTAGGCTCAGG; chain 2 UUUGUUGGAUUCGAGUAGGCUCAGG; Antisense strand given in DNA and RNA notation, chemistry not given here; one strand in two spellings)", "values": [
      {"measurement": "Growth Inhibition in A549 cells by 10 nM siRNA", "setting": "A549 cells", "value": "− (no growth inhibition)"},
      {"measurement": "mRNA knockdown of transporter gene target transcript, 0.1 nM", "setting": "[1]", "value": "− (<50% mRNA knockdown)"},
      {"measurement": "mRNA knockdown of transporter gene target transcript, 1 nM", "setting": "[1]", "value": "− (<50% mRNA knockdown)"}
    ]}
  ]
}
